What is called half-life is the time needed for the level to fall by half in the phase considered. A low value points to rapid decline.

Results on two substances are retold here after article PMC6901946, “Intranasal MMI-0100 Attenuates Aβ1−42- and LPS-Induced Neuroinflammation and Memory Impairments via the MK2 Signaling Pathway” (Frontiers in Immunology, 2019).

The subject of data set [1] is Kunming mice. The experiment in a line: Novel object recognition (NOR) task. In kind it is in vivo, mouse. As to conditions: Aβ1−42 800 pmol i.c.v. 14 days before, tested after 24 h. As to the method:
(§1) MMI-0100 or vehicle was infused into the brain by using a 32-gauge stainless steel syringe needle placed in and projecting 0.5 mm below the tip of the cannula for 2 min. This needle was connected via a PE tube to a 5-μl Hamilton syringe mounted to a Microdrive pump (KD Scientific). To allow the drug to diffuse, the infusion syringe remained in place for 1 min. For the lateral ventricle, injection volume is 2 μl, and for the bilateral hippocampus CA1, injection volume is 0.5 μl/side. After drug administration, each mouse was subjected to behavioral testing immediately. In addition, the selection of the doses was based on the previous reports and our preliminary observations ([24]).
(§2) The behavior experiments were carried out 15 min after i.c.v. injection of MMI-0100, or 2 h after intranasal infusion of MMI-0100. The cytokines were measured 15 min after i.c.v. injection of MMI-0100.
(§3) The procedures for the novel object recognition (NOR) and object location recognition (OLR) tasks were described in our previous report ([23], [30]). The videos for NOR and OLR tasks were shown in Supplementary Material. […] The discrimination index (DI) in the memory retention phase was calculated as the percentage of the time a mouse explored the new object or location over the total time the mouse explored the two objects or locations. […]

Data set [2] deals with Kunming mice. Description: Object location recognition (OLR) task. In kind it is in vivo, mouse. The settings on record: Aβ1−42 800 pmol i.c.v. 14 days before, tested after 24 h. As to the method: as §1, §2, §3
Data set [3] deals with IL-6, IL-1β, TNF-α, iNOS. Description: Quantitative PCR of pro-inflammatory factors in hippocampus. As to conditions: Aβ1−42-induced model; 15 min after i.c.v. MMI-0100; Figure 5; n = 5. The format is in vivo, mouse. The method, then:
Amnesia was caused by Aβ1−42 injection for 14 days or LPS infusion for 3 days; 15 min after injection of MMI-0100 or vehicle, the hippocampus was removed from mice. Real-time RT-PCR was performed according to a previous report ([31]). Total RNA was extracted using Trizol reagent (TaKaRa) and 1 μg of RNA in each sample was reversely transcribed into a single-stranded complementary DNA with the 5X PrimeScript RT Master Mix (TaKaRa) following the manufacturer's instructions. Amplification was carried out in a 25 μl reaction mixture consisting of 12.5 μl of 2X SYBR Premis Ex TaqTM II, 2 μl of cDNA, 1 μl of forward primer, 1 μl of reverse primer, and 8.5 μl of H2O, and was run under the following conditions: 95°C for 30 s, followed by 40 cycles of 95°C for 5 s, 58°C for 30 s, and 72°C for 30 s. The primer pair P1/P2 was used in the RT-PCR assay to identify the expression level of TNF-α, IL-6, IL-1β, and iNOS gene in vehicle + vehicle-, Aβ1−42 + vehicle-, Aβ1−42 + MMI-0100-, LPS + vehicle-, and LPS + MMI-0100-treated groups.

Data set [4] relates to TNF-α, IL-1β, IL-6. Description: ELISA of pro-inflammatory cytokines in hippocampus. The format is in vivo, mouse. The settings on record: Aβ1−42-induced model, Figure 6, n = 5. The method, then:
Total proteins from the hippocampus of mice in each group were extracted with RIPA lysis buffer containing protease inhibitor (Gibco, Thermo Fisher Scientific, Inc.). Total proteins were determined using a bicinchoninic acid protein assay kit (Sangon Biotech Co., Ltd.). IL-1β, IL-6, and TNF-α in the hippocampus tissue were measured using ELISA kits (cat number: E-EL-M0049 for TNF-α, cat number: E-EL-M0044 for IL-6, cat number: E-EL-M0037 for IL-1β, Elabscience), according to the manufacturer's instructions.
(ELISA stands for enzyme-linked immunosorbent assay.)

Data set [5] addresses T1, MK2 (Mus musculus, UniProt P49138).
T1 construct: the protein samples (40 μg per lane) isolated from the hippocampus were separated by SDS-PAGE; from tissue; host or cells: mouse hippocampus
Description: Western blotting of pMK2 in hippocampus. The format is in vivo. As to conditions: Aβ1−42-induced model; Figure 7; n = 5. The method, then:
Western blotting was carried out as per the manufacturer's instructions (Bio-Rad Laboratories, Inc). Protein was extracted with RIPA buffer containing protease inhibitor (Gibco; Thermo Fisher Scientific, Inc.). The protein concentration was determined using a BCA protein assay kit (Pierce; Thermo Fisher Scientific, Inc.). Briefly, the protein samples (40 μg per lane) isolated from the hippocampus were separated by SDS-PAGE and electrophoretically transferred onto polyvinylidene fluoride membranes. Membranes were blocked with 5% skimmed milk for 2 h and incubated overnight at 4°C with specific first antibodies. GAPDH was used as a loading control. Subsequently, the membranes were incubated with the corresponding secondary antibodies and the reaction was visualized with chemiluminescence reagents provided with an ECL kit (Thermo) and exposed to a film. The intensity of the blots was quantified with densitometry (Image J 1.49v; National Institutes of Health).
Background: In western blotting, separated proteins are transferred to a membrane and probed.

The nature of data set [6]: in vitro. The settings on record: mouse, brain homogenates.
Description: The peptide levels after incubation were expressed as percent parent remaining. Points indicate the means and vertical lines indicate the SEM of 3 separate experiments.
Setting [7] is: intranasal experiment (Figure 10), MMI-0100 25 nmol intranasal or vehicle.

Ends that are not written are not given here.

T1 sequence (P49138 whole entry): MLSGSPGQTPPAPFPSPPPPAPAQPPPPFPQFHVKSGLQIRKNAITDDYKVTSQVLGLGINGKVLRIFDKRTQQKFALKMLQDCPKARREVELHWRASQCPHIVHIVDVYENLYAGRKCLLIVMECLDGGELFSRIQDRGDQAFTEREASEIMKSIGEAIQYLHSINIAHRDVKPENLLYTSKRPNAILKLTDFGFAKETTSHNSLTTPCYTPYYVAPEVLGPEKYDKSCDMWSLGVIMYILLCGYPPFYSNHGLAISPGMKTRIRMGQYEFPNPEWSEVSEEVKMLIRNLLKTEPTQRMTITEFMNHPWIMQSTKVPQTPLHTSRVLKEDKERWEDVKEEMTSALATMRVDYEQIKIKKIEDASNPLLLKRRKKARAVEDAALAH

As to “Aβ1−42: Aβ1−42 peptide purchased from Hangzhou Chinese Peptide Biochemical Company, oligomer used to induce AD model”, the “discrimination index (DI), NOR” value in data set [1] (Figure 2A, MMI-0100 5 nmol i.c.v. or vehicle, chance level 50%) came out at 50.96%; in data set [1] (setting [7]) it was 50.98%. In addition, the “discrimination index (DI), OLR” value in data set [2] (Figure 3A, MMI-0100 5 nmol i.c.v. or vehicle, chance level 50%) was 48.04%; in data set [2] (setting [7]), 46.31%. The “mRNA level of IL-6, IL-1β, TNF-α and iNOS in hippocampus” value in data set [3] is “dramatically increased”. The “protein levels of IL-6, IL-1β and TNF-α in hippocampus” value in data set [4] is given as “higher”. Moreover, the “phosphorylation of MK2 (pMK2/tMK2) in hippocampus” value in data set [5] is recorded as “significantly up-regulated”.

Turning to YARAAARQARAKALARQLGVAA [MMI-0100], in data set [6], the half-life was approximately 2.69 h.
